Assay results from ChEMBL document CHEMBL1134363 (J Med Chem, 2001).

Assays:
[1] = molecular target: T1, Adrenergic receptor alpha-2 (Rattus norvegicus, UniProt P22086+P19328+P22909); assay: In vitro binding affinity against alpha-2 adrenergic receptor of rat in presence of [3H]-RX 821002 radioligand; format: protein assay
T1 sequence (P22086 whole entry): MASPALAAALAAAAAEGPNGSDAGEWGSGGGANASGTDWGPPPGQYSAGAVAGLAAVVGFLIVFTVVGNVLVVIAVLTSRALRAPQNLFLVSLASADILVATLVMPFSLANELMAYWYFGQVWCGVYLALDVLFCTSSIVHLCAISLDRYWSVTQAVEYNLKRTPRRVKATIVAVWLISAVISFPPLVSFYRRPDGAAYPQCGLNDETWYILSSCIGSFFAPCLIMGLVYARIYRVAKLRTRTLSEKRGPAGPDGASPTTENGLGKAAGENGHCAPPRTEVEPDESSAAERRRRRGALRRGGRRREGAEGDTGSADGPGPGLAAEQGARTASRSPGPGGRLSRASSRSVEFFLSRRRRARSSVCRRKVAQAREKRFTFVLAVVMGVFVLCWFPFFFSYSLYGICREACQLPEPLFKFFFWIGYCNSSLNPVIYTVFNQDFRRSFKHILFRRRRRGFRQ
T1 sequence (P19328 whole entry): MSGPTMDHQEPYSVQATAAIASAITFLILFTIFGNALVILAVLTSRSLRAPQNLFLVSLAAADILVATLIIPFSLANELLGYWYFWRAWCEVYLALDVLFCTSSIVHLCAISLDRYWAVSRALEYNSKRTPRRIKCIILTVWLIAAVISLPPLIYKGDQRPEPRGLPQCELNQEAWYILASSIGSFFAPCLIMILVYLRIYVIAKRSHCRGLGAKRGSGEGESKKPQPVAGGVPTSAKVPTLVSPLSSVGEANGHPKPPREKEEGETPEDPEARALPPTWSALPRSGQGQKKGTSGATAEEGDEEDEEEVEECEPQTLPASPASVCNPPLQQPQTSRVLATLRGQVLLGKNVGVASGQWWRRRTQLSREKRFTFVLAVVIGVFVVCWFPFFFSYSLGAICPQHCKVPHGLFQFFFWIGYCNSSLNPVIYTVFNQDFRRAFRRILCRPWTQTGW
T1 sequence (P22909 whole entry): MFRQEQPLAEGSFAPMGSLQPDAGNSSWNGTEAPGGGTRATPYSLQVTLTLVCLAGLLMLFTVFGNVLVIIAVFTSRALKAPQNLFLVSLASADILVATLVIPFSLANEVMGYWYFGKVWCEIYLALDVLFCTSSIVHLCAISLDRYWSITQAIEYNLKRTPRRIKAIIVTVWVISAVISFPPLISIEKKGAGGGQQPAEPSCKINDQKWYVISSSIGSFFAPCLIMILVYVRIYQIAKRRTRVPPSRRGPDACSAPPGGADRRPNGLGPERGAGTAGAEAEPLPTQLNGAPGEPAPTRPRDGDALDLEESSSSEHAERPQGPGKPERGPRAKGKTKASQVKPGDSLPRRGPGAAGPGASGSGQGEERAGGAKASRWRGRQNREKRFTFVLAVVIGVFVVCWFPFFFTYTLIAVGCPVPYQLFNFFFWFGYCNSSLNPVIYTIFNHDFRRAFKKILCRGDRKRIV

[2] = molecular target: T2, Adrenergic receptor alpha-1 (Rattus norvegicus, UniProt P15823+P23944+P43140); assay: In vitro binding affinity against alpha-1 adrenergic receptor of rat in presence of [3H]-prazosin radioligand; format: protein assay
T2 sequence (P15823 whole entry): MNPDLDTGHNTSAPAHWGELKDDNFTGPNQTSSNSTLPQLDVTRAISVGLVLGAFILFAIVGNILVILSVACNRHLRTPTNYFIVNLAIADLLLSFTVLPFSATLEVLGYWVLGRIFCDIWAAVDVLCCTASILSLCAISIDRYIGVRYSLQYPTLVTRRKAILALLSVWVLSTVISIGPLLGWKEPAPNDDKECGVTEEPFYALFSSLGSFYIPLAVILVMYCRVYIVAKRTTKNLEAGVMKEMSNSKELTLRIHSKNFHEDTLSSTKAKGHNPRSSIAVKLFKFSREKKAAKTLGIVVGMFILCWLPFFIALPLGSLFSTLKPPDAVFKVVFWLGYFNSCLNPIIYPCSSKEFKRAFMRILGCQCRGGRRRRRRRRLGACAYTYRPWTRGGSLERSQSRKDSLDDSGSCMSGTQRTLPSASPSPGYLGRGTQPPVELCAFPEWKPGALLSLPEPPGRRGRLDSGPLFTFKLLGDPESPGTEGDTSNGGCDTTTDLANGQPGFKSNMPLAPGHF
T2 sequence (P23944 whole entry): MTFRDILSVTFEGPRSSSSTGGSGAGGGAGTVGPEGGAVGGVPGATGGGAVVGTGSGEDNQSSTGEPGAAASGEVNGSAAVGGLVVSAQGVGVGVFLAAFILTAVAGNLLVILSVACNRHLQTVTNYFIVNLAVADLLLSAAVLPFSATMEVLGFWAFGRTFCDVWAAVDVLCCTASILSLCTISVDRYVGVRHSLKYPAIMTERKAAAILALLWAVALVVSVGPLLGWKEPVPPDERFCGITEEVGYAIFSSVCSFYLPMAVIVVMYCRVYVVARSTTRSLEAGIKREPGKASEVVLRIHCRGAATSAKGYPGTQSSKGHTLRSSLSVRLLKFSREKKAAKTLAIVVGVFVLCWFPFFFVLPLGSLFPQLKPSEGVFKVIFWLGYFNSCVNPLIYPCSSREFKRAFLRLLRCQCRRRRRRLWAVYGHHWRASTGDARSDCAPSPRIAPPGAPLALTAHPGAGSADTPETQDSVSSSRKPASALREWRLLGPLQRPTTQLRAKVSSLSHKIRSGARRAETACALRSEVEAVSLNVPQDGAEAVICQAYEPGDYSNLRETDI
T2 sequence (P43140 whole entry): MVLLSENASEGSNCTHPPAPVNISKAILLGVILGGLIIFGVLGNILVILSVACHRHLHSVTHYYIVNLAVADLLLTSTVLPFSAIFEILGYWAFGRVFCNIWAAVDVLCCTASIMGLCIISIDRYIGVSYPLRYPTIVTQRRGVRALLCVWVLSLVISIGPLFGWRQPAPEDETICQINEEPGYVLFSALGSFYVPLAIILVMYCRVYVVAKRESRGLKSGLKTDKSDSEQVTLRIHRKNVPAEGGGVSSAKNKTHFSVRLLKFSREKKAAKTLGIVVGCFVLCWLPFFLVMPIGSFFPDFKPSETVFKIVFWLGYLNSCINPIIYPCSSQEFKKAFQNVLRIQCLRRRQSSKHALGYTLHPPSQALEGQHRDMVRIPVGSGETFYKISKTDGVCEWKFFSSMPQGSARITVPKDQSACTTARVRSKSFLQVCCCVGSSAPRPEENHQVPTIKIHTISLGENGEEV

[3] = molecular target: Norepinephrine transporter (Rattus norvegicus, UniProt Q9WTR4); assay: In vitro binding affinity was determined against NA (noradrenaline) reuptake site of rat in presence of [3H]nisoxetine radioligand
Sequence of Norepinephrine transporter (Q9WTR4 whole entry): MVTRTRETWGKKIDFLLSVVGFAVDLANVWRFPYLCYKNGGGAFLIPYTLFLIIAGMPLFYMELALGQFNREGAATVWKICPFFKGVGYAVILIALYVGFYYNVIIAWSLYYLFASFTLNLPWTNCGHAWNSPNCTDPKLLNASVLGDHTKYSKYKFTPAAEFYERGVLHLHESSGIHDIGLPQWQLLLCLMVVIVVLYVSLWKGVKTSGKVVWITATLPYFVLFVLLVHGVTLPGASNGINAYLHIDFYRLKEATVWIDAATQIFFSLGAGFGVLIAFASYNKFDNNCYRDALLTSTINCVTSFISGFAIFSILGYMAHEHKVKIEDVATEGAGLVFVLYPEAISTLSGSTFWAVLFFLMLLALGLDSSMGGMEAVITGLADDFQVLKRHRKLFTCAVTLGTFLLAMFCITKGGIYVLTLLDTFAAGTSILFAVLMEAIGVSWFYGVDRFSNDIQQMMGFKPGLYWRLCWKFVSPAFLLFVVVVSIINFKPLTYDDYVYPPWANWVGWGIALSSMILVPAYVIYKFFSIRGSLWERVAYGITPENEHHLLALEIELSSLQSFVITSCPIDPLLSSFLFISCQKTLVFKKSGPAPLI

[4] = molecular target: Sodium-dependent serotonin transporter (Rattus norvegicus, UniProt P31652); assay: In vitro binding affinity was determined against serotonin reuptake site of rat in presence of [3H]paroxetine radioligand
Sequence of Sodium-dependent serotonin transporter (P31652 whole entry): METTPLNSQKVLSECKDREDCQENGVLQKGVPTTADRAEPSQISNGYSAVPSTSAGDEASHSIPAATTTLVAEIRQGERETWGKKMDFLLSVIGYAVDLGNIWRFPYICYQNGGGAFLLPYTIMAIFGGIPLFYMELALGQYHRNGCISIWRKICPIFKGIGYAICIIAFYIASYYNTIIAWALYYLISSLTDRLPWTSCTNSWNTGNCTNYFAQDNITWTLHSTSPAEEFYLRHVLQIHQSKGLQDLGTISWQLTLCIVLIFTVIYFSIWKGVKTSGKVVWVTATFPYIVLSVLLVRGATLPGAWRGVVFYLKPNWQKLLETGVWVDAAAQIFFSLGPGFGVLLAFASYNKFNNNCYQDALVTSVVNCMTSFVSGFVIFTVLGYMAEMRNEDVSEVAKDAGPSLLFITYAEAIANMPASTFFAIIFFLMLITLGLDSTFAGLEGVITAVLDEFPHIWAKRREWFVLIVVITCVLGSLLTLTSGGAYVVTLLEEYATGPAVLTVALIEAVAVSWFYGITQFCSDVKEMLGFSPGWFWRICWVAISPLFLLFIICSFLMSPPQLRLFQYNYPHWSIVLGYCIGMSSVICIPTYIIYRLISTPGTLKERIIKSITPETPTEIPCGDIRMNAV

Log Ki [1]	Log Ki [2]	Ki [3] [µM]	Ki [4] [µM]	SMILES
< -5	< -5.5	0.158	> 10	C1=NCC(Cc2cc3cc(-c4ccccc4)ccc3o2)N1 (configuration not stated)
-6.3	-5.6	> 1	0.2	COc1ccc2c(c1)C=C(CC1CN=CN1)CC2 (configuration not stated)
-8.5	-7	> 1	0.2	C1=C(CC2=NCCN2)CCc2ccccc21 [NAPAMEZOLE]
-6.8	-6.2	1	0.0126	Cc1cccc2c1C=C(CC1CN=CN1)CC2 (configuration not stated)
-6.4		> 1	0.0158	Cc1ccc2c(c1)CCC(CC1CN=CN1)=C2 (configuration not stated)
-6.6	-5.7	0.0631	0.0316	C[C@@]1(C[C@H]2CN=CN2)CCc2ccccc2C1
-7		0.794	0.158	Fc1ccc2oc(CC3CN=CN3)cc2c1 (configuration not stated)
-6.9	-5.8	0.0631	0.251	C1=NCC(CC2=Cc3ccccc3OC2)N1 (configuration not stated)
-6.1	-5.9	0.316	0.0631	CC1(CC2=Cc3ccccc3CC2)CN=CN1 (configuration not stated)
-7.3		0.501	0.158	NC1=NC(CC2=Cc3ccccc3CC2)CO1 (configuration not stated)
-6.3	-6.3		0.631	C1=NCC([C@H]2[C@@H]3Cc4ccccc4C[C@@H]32)N1 (some centres not stated)
-6.2	-5.3	> 10	6.31	C1=NCC2(CC3(Cc4ccccc4C3)C2)N1
-8.9	-6.8	0.1	0.1	Fc1cccc2c1CC(CC1CN=CN1)C2 (configuration not stated)
-7.3	-6.1	0.1	0.0126	Fc1cc2c(cc1F)CC(CC1CN=CN1)C2 (configuration not stated)
-7.6	-6.8	1		COc1cccc2c1C=C(CC1CN=CN1)CC2 (configuration not stated)
-7.5	-6.2	1	1.26	C1=NCC(CC2COc3ccccc3O2)N1 (configuration not stated)
-5.5	-6.1	0.0501	> 1	C1=NCC([C@@H]2[C@@H]3Cc4ccccc4C[C@@H]32)N1 (some centres not stated)
-7.2	-5.9	0.316	0.02	C1=NC[C@@H](C[C@]23CCc4ccccc4C2C3)N1 (some centres not stated)
-8.8	-6.5	0.1	0.00501	Clc1cccc2c1CC(CC1CN=CN1)CC2 (configuration not stated)
-6.6	-6	0.398	0.0251	C1=NC[C@H](C2C[C@@]23CCc2ccccc2C3)N1 (some centres not stated)
-6.8	-6.4	1	0.0631	Cc1ccc2c(c1)C=C(CC1CN=CN1)CC2 (configuration not stated)
-6.4	-5.9	> 10	0.158	FC(F)(F)c1ccc2c(c1)C=C(CC1CN=CN1)CC2 (configuration not stated)
-5.8		> 1	0.0794	Cc1ccc2c(c1)CCC(CC1CN=C(N)O1)=C2 (configuration not stated)
-8.1	-6.2	0.316		Fc1ccc2c(c1)CC(CC1CN=CN1)C2 (configuration not stated)
-6.4		0.251	> 3.16	C1=NC[C@@H]([C@H]2[C@@H]3CCc4ccccc4[C@@H]32)N1

SMILES	Log Ki [1]	Log Ki [2]	Ki [3] [µM]	Ki [4] [µM]
C1=C(Cc2c[nH]cn2)CCc2ccccc21	-8.9	-7.3	0.794	0.631
NC1=NCC(CC2=Cc3ccccc3CC2)O1 (configuration not stated)	-6		1	0.0631
NC1=NCC(CC2=Cc3c(Cl)cccc3CC2)O1 (configuration not stated)	-6.2	-6.5	> 1	
